Peptide text beside a SMILES is read from it.
Assays:
[1] = tested on: kinases that phosphorylate tau at Thr231; experiment: Immunofluorescence of tau Thr231 phosphorylation in neurons; format: cell-based, rat
MARK2 = MARK2 (Homo sapiens, UniProt Q7KZI7); experiment: In vitro phosphorylation assay: inhibition of MARK2-mediated phosphorylation of hTau-K18 (western blot, α-Tau pSer262); format: biochemical
Protocol: The ability for MARK2 to phosphorylate hTau K18 was evaluated in vitro by incubating MARK2 with hTau-K18 in the presence or absence of ATP (FIG. 1B). All phosphorylation reactions were carried out for 60 minutes at 32° C. in phosphorylation buffer (50 mM Tris-HCl, 5 mM MgCl2, 2 mM EGTA, 0.5 mM DTT, 0.5 mM benzamidine HCl, 0.5 mM PMSF, pH 8.0). Following the reaction, phosphorylated hTau-K18 proteins were separated by SDS-PAGE and identified by western blot using antibodies specific for hTau pSer262 (FIG. 1B, lanes 1 and 2). As a loading control, total hTau-K18 in each lane was quantified by western blot using antibodies specific for non-phosphorylated hTau-K18 (FIG. 1B, lower image). To ensure that the phosphorylation of hTau-K18 was a result of kinase activity and not auto-phosphorylation by ATP, hTau-K18 was incubated in the absence of MARK2 with or without ATP (FIG. 1B, lanes 3 and 4).
The ability for the tR1 peptide to act as an inhibitor of MARK2-mediated phosphorylation of hTau-K18 in vitro was examined. To test this, MARK2 and hTau-K18 were incubated in the presence of varying concentrations of tR1 for 60 minutes at 32° C. in phosphorylation buffer. Following the reaction, the proteins were separated by SDS-PAGE and identified by Western blot using antibodies specific for hTau pSer262 (FIG. 1C). Total hTau-K18 in each lane was quantified using antibodies specific for non-phosphorylated hTau-K18 (FIG. 1C, lower image).
Phosphorylation assays were performed in 30 μL phosphorylation buffer (50 mM Tris-HCl, 5 mM MgCl2, 2 mM EGTA, 0.5 mM DTT, 0.5 mM benzamidine HCl, 0.5 mM PMSF, pH 8.0) and depending on the experimental conditions. 100 μM ATP, 10 μM hTau K18, 10 nM MARK2, and 10 μM tR1 were added to the reaction mixture. The reaction was carried out for 1 hour at 32° C. […] Images were acquired by a Bio-Rad Gel Doc EZ imager and the band intensity was quantified using Image Lab Software c5.2.1 (Bio-Rad).

trypsin = experiment: Trypsin degradation control (RP-HPLC); format: in vitro ADME; conditions: 37° C.
Protocol: (§1) Stock peptide solutions for use in stability assays were prepared by dissolving tR1 to a final concentration of 5 mg/mL in dimethyl sulfoxide (DMSO). For stability tests, 2 μL of stock tR1 peptides were added to 198 μL pre-warmed RPMI medium supplemented with 25% (v/v) heat-inactivated human AB serum or neurobasal (NB) media at a final concentration of 50 μg/mL. Each reaction was subsequently incubated at 37° C. for the indicated times. Following incubation, 400 μL aqueous trichloroacetic acid (15%, w/v) was added to each reaction and the samples were immediately cooled on ice for 15 minutes. The samples were then centrifuged 3× at 14,000 rpm to remove precipitated proteins. […] The background signal was subtracted from each respective spectrum and the fraction of intact peptide was quantified from product peak integration normalized to undigested controls. […]
(§2) A major limitation to the therapeutic efficacy of peptides is their susceptibility to proteolytic degradation. Indeed, short peptides generally have a serum half-life measured in minutes. The in vitro stability of tR1 peptides in the presence of proteolytic enzymes was determined. […] Following the incubation, the reactions were quenched using haloacetic acids and the extent of degradation was quantified by analytical HPLC.

[2] = tested on: rat primary cortical neurons; conditions: 72 hours
Protocol: Primary cells were isolated from embryonic Sprauge-Dawley rats and cultured as described.
High density rat primary cortical neurons (5-7 DIV) cultured in polyE coated 24-well plates were used for this assay. Culture media was switched to neurobasal without B27 supplement (NB-B27) before the addition of tR1 peptides. […] For the MTT assay, 50 μg/mL MTT working solution was diluted from a 5 mg/mL MTT stock (water solution made from MTT powder, Alfa Aesar L11939) in NB-B27. After aspirating out the culture media, cells were incubated with 0.2 mL 50 μg/mL MTT working solution for one hour at 37° C. Then, the MTT solution was aspirated and replaced with 0.5 mL DMSO. The whole DMSO solution was transferred to a cuvette and read in the spectrophotometer (Cary UV 50, Varian) at 550 nm with subtraction of the reading at 650 nm wavelength.

[3] = In vitro peptide stability in RPMI medium with 25% (v/v) human serum (RP-HPLC); format: in vitro ADME; conditions: 37° C., up to 24 hours
Protocol: as §1, §2

MARK2, sequence (Q7KZI7 whole entry): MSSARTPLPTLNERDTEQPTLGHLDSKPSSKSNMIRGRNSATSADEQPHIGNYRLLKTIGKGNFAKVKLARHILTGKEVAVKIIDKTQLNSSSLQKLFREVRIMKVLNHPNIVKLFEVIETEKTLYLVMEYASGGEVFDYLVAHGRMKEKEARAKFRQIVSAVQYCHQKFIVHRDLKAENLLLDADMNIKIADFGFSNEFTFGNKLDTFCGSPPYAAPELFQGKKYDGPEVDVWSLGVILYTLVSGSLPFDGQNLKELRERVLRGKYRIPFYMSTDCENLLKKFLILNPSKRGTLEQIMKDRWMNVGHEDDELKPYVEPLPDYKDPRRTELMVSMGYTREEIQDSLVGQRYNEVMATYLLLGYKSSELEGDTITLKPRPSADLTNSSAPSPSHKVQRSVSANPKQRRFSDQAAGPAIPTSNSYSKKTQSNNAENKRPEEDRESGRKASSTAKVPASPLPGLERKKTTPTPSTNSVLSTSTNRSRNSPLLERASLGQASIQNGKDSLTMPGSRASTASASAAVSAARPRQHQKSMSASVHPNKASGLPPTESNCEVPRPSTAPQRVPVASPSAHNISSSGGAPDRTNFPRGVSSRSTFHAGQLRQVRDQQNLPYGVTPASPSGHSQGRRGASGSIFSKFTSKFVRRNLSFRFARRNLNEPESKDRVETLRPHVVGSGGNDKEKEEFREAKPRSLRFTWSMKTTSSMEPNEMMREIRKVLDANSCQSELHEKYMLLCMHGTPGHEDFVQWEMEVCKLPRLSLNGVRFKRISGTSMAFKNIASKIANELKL

CC[C@H](C)[C@H](NC(=O)[C@H](CCCCN)NC(=O)[C@H](CO)NC(=O)[C@H](CCCCN)NC(=O)[C@@H](NC(=O)[C@H](CC(N)=O)NC(C)=O)C(C)C)C(=O)NCC(=O)N[C@@H](CO)C(=O)N[C@H](C(=O)N[C@@H](CCC(=O)O)C(=O)N[C@@H](CC(N)=O)C(=O)N[C@@H](CC(C)C)C(=O)N[C@@H](CCCCN)C(N)=O)[C@@H](C)O [tR1, NVKSKIGSTENLK] (Ac-NVKSKIGSTENLK-NH2)
level of pTau Thr231 compared to untreated control cells ([1]; 30 μM tR1 and 100 μM CLQ, no PAO): did not show any significant loss of pTau Thr231 | effect on PAO-mediated inhibition of tau Thr231 phosphorylation ([1]; tR1 with PAO, even in the presence of CLQ): did not influence the PAO-mediated inhibition of tau Thr231 phosphorylation | established in vitro inhibitory concentration (MARK2): 10 µM | inhibition at 50 µM (MARK2; 50 μM tR1, 60 minutes at 32° C. in phosphorylation buffer, read-out: inhibition of MARK2 activity (hTau-K18 Ser262 phosphorylation, densitometry)): ≤ 66% | concentrations at which tR1 effectively inhibits MARK2-mediated phosphorylation of hTau-K18 (MARK2; 60 minutes at 32° C., western blot): greater than 0.5 μM | degradation by trypsin (trypsin; trypsin 10 ng/μL in digestion buffer, 15 minutes): complete degradation | time to degradation in buffer containing trypsin (trypsin; trypsin 10 ng/μL): less than 15 minutes | concentrations at which tR1 is non-toxic ([2]; MTT): up to 300 μM | loss in cell viability ([2]; highest concentrations of tR1 (0-300 μM)): < 5% | fraction of intact tR1 (stable) [3]: > 90% | remaining at 24 h, 50 μg/mL ([3]; RPMI medium with 25% (v/v) heat-inactivated human AB serum, read-out: fraction of intact tR1 (stable)): > 90%
